The format of data set [1] is in vivo, rat. As to conditions: in contrast to compounds I, II and III. As to the method:
The bioanalysis of plasma samples from rats dosed with LC/MS/MS detection of sulfathiazole as measured against an internal standard. Extraction was performed on-line with a turbulent flow chromatography system (HTLC). The transfer from the HTLC to the analytical HPLC is automatic. The mass spectrometer was operated in API ionization mode with an electrospray interface between the analytical HPLC and the mass spectrometer. Multiple reaction monitoring (mrm) detection was used for each analyte on a triple quadrupole mass spectrometer.
2. Materials • HPLC grade reagents were used such as: • Water (Hydro Services Picosystem water filtration) • Methanol (Fisher Ultima) • Ammonium formate (Sigma), and • Formic acid (Sigma) • Rat plasma • sulfathiazole • internal standard B. Instrument Conditions • Mass spectrometer: • Positive ion, mrm detection at • m/z 256 to m/z 108 for ICA-000024 • m/z 342 to m/z 218 for ICA-18756 (internal standard) • 100 ms Dwell time • Cone voltage, capillary voltage and collision energy were optimized for each compound • Source Temperature: 125 C, Desolvation temperature: 325 C • Cone gas at 73 L/hr, and Desolvation gas at 740 L/hr C. Chromatography Conditions
1. Mobile Phases: • A: 98% water:2% methanol with • 4 mM ammonium formate, 0.1% formic acid • B: 98% methanol:2% water with • 4 mM ammonium formate, 0.1% formic acid
2. HTLC Turbulent Flow Quaternary Pump • Column: Cohesive Cyclone Turbo-Flow • Timetable:
3. Analytical Binary Pump • Column: Phenomenex Synergi Hydro-RP 4u 50 mm×2.1 mm • Timetable:
4. Injection Volume • 20 μL D. Preparation of Standards and Samples
Plasma standards and samples were prepared for injection according to the standard operating procedure, HTLC Plasma Analysis by LC/MS/MS.

In another data set the target is T1, hSCN3A sodium channels (Homo sapiens, UniProt Q9NY46).
T1 construct: expressed in transfected cells
T1 sequence (Q9NY46 whole entry): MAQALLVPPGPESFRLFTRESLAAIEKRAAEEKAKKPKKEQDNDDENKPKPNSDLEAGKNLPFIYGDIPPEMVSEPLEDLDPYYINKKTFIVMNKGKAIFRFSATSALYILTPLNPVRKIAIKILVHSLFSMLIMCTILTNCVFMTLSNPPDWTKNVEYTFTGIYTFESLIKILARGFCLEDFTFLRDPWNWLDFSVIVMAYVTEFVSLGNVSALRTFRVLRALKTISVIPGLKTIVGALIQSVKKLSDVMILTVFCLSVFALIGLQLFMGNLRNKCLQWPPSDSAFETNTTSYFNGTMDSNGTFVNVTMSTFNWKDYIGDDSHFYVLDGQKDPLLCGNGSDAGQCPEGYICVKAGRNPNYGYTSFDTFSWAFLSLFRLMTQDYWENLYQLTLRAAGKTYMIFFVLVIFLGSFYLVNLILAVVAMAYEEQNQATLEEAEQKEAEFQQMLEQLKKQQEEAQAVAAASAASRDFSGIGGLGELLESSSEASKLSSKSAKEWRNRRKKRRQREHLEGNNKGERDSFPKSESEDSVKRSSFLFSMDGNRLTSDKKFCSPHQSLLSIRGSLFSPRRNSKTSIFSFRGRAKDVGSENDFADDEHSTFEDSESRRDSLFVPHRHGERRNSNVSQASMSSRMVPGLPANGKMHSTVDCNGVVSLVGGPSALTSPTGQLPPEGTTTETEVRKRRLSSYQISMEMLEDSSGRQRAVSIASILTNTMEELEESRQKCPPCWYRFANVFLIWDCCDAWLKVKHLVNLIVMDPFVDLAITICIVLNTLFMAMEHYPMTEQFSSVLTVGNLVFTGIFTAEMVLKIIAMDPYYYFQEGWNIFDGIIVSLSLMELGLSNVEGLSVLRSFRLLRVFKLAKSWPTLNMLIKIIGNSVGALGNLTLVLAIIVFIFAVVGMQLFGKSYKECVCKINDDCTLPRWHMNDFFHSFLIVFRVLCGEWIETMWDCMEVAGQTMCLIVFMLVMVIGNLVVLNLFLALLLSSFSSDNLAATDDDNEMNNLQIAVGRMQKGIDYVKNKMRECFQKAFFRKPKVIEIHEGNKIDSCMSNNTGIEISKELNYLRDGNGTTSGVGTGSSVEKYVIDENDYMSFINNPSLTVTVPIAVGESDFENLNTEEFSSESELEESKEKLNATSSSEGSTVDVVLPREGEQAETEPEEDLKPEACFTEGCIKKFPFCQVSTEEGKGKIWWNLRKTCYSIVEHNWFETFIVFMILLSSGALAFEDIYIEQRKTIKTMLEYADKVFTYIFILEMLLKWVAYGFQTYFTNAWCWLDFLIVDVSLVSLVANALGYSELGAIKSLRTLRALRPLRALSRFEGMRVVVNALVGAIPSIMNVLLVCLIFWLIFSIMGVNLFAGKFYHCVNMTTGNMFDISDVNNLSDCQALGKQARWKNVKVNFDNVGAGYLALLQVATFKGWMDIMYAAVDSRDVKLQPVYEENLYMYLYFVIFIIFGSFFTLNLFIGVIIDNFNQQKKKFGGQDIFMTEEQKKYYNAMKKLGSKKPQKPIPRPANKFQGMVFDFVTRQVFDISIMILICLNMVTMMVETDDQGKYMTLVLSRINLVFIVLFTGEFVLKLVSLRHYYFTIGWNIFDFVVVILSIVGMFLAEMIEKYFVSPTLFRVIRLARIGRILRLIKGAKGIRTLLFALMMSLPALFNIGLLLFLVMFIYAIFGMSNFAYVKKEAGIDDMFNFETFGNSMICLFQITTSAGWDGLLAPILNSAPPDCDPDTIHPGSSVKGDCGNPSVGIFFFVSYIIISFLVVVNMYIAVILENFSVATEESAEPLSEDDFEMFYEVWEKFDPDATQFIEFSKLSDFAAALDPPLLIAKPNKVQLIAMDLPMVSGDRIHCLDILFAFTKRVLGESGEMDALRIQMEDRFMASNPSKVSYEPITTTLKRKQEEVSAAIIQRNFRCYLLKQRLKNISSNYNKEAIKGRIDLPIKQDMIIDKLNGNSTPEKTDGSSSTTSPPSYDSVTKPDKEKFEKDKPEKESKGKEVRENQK
As to the kind of experiment: hSCN3A electrophysiology, whole-cell patch-clamp or PatchXpress 7000, estimated IC-50 (Table B). The class given is cell-based. As to conditions: estimated IC-50; hSCN3A cells, whole-cell patch-clamp or PatchXpress 7000; read-out: SCN3A EIC-50. In outline: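 A 20 msec test pulse to 0 mV followed an 8 sec conditioning prepulse at each cell's measured V1/2. Room-temperature (22-24° C) recordings on HEK cells stably expressing the channel, conventional or PatchXpress.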

In the case of `O=C(NCc1ccc(Cl)cc1)c1ccc(S(=O)(=O)Nc2nccs2)cc1` [Example 100, N-(4-chlorobenzyl)-4-[(1,3-thiazol-2-ylamino)sulfonyl]benzamide], the “metabolism to the aniline containing sulfathiazole” value in data set [1] is reported as “do not metabolize to form the aniline containing sulfathiazole”. Besides, on hSCN3A sodium channels, the IC50 was 0.43 µM.
On to `O=C(NCC1(c2ccc(Cl)cc2)CC1)c1ccc(S(=O)(=O)Nc2ncns2)c(F)c1` [Example 382, N-{[1-(4-chlorophenyl)cyclopropyl]methyl}-3-fluoro-4-[(1,2,4-thiadiazol-5-ylamino)sulfonyl]benzamide], for which the IC50 on hSCN3A sodium channels is 0.14 µM.
In the case of `O=C(c1ccc(S(=O)(=O)Nc2nccs2)cc1)N1CCC[C@H]1COc1cccc(Cl)c1` [Example 384, 4-({(2S)-2-[(3-chlorophenoxy)methyl]pyrrolidin-1-yl}carbonyl)-N-1,3-thiazol-2-ylbenzenesulfonamide], the IC50 at hSCN3A sodium channels was 0.35 µM.
Regarding `O=C(NCCNc1ccc(Cl)cc1)c1ccc(S(=O)(=O)Nc2nccs2)cc1` [Example 385, N-{2-[(4-chlorophenyl)amino]ethyl}-4-[(1,3-thiazol-2-ylamino)sulfonyl]benzamide], the IC50 on hSCN3A sodium channels was 0.78 µM.
Same read-out and setting: in the case of `O=C(NCc1cccs1)c1ccc(S(=O)(=O)Nc2nccs2)cc1` [Example 386, 4-[(1,3-Thiazol-2-ylamino)sulfonyl]-N-(2-thienylmethyl)benzamide] it was 3.41 µM; in that of `CC(C)(C)c1ccc(CNC(=O)c2ccc(S(=O)(=O)Nc3nccs3)cc2)cc1` [Example 387, N-(4-tert-butylbenzyl)-4-[(1,3-thiazol-2-ylamino)sulfonyl]benzamide], 0.17 µM.
The same measure, in the same setting: as for `O=C(NCc1ccc(Cl)c(Cl)c1)c1ccc(S(=O)(=O)Nc2nccs2)cc1` [Example 388, N-(3,4-dichlorobenzyl)-4-[(1,3-thiazol-2-ylamino)sulfonyl]benzamide], the figure is 0.11 µM; as for `CC(C)(C)CCNC(=O)c1ccc(S(=O)(=O)Nc2ncc(Cl)s2)c(F)c1` [Example 389, 4-{[(5-Chloro-1,3-thiazol-2-yl)amino]sulfonyl}-N-(3,3-dimethylbutyl)-3-fluorobenzamide], 0.61 µM; as for `O=C(NCc1ccc(C(F)(F)F)cc1)c1ccc(S(=O)(=O)Nc2nc[nH]n2)cc1` [Example 390, 4-[(1H-1,2,4-triazol-3-ylamino)sulfonyl]-N-[4-(trifluoromethyl)benzyl]benzamide], 9.95 µM.
On to `Cc1csc(NS(=O)(=O)c2ccc(C(=O)NCc3ccc(C(F)(F)F)cc3)cc2)n1` [Example 391, 4-{[(4-methyl-1,3-thiazol-2-yl)amino]sulfonyl}-N-[4-(trifluoromethyl)benzyl] benzamide], for which the IC50 on hSCN3A sodium channels was 1.35 µM.
On to `O=C(NCc1cccc(C(F)(F)F)c1F)c1ccc(S(=O)(=O)Nc2nccs2)cc1` [Example 392, N-[2-fluoro-3-(trifluoromethyl)benzyl]-4-[(1,3-thiazol-2-ylamino)sulfonyl]benzamide], for which the IC50 at hSCN3A sodium channels is 0.23 µM.
Turning to `O=C(NCc1ccc(OC(F)(F)F)c(F)c1)c1ccc(S(=O)(=O)Nc2nccs2)cc1` [Example 394, N-[3-fluoro-4-(trifluoromethoxy)benzyl]-4-[(1,3-thiazol-2-ylamino)sulfonyl]benzamide], the IC50 on hSCN3A sodium channels is 0.09 µM.
Consider `O=C(NCc1ccc(Cl)c(C(F)(F)F)c1)c1ccc(S(=O)(=O)Nc2nccs2)cc1` [Example 395, N-[4-chloro-3-(trifluoromethyl)benzyl]-4-[(1,3-thiazol-2-ylamino)sulfonyl]benzamide], for which the IC50 on hSCN3A sodium channels is 0.03 µM.
In the case of `O=C(NCc1ccc(C(F)(F)F)c(Cl)c1)c1ccc(S(=O)(=O)Nc2nccs2)cc1` [Example 396, N-[3-chloro-4-(trifluoromethyl)benzyl]-4-[(1,3-thiazol-2-ylamino)sulfonyl] benzamide], on hSCN3A sodium channels, the IC50 is 0.03 µM.
The same measure, in the same setting: as for `O=C(NCc1ccc(C(F)(F)F)cc1F)c1ccc(S(=O)(=O)Nc2nccs2)cc1` [Example 397, N-[2-fluoro-4-(trifluoromethyl)benzyl]-4-[(1,3-thiazol-2-ylamino)sulfonyl] benzamide], the figure is 0.22 µM; as for `O=C(NCc1cccc(C(F)(F)F)c1)c1ccc(S(=O)(=O)Nc2nccs2)cc1` [Example 398, 4-[(1,3-Thiazol-2-ylamino)sulfonyl]-N-[3-(trifluoromethyl)benzyl] benzamide], 0.26 µM.
Same read-out and setting: as for `O=C(NCc1ccc(-c2ccccc2)cc1)c1ccc(S(=O)(=O)Nc2nccs2)cc1` [Example 399, N-(biphenyl-4-ylmethyl)-4-[(1,3-thiazol-2-ylamino)sulfonyl] benzamide], the figure is 0.03 µM; as for `Cc1ccc(CNC(=O)c2ccc(S(=O)(=O)Nc3nccs3)cc2)cc1Cl` [Example 400, N-(3-chloro-4-methylbenzyl)-4-[(1,3-thiazol-2-ylamino)sulfonyl] benzamide], 0.07 µM; as for `O=C(NCc1ccc(F)c(Cl)c1)c1ccc(S(=O)(=O)Nc2nccs2)cc1` [Example 401, N-(3-chloro-4-fluorobenzyl)-4-[(1,3-thiazol-2-ylamino)sulfonyl] benzamide], 0.17 µM.
Same read-out and setting: as for `O=C(NCc1ccc(OC(F)(F)F)cc1)c1ccc(S(=O)(=O)Nc2nccs2)cc1` [Example 402, 4-[(1,3-Thiazol-2-ylamino)sulfonyl]-N-[4-(trifluoromethoxy)benzyl]benzamide], the figure is 0.19 µM; as for `COc1cc(OC(F)(F)F)ccc1CNC(=O)c1ccc(S(=O)(=O)Nc2nccs2)cc1` [Example 404, N-[2-methoxy-4-(trifluoromethoxy)benzyl]-4-[(1,3-thiazol-2-ylamino)sulfonyl] benzamide], 0.14 µM; as for `COc1ccc(CNC(=O)c2ccc(S(=O)(=O)Nc3nccs3)cc2)cc1Cl` [Example 405, N-(3-chloro-4-methoxybenzyl)-4-[(1,3-thiazol-2-ylamino)sulfonyl] benzamide], 0.06 µM.
As for `O=C(NCc1ccc(Cl)cc1C(F)(F)F)c1ccc(S(=O)(=O)Nc2nccs2)cc1` [Example 406, N-[4-chloro-2-(trifluoromethyl)benzyl]-4-[(1,3-thiazol-2-ylamino)sulfonyl] benzamide], the IC50 at hSCN3A sodium channels is 0.26 µM.
Turning to `O=C(NCc1ccc(Cl)nc1)c1ccc(S(=O)(=O)Nc2nccs2)cc1` [Example 407, N-[(6-chloropyridin-3-yl)methyl]-4-[(1,3-thiazol-2-ylamino)sulfonyl] benzamide], on hSCN3A sodium channels, the IC50 was 1.78 µM.
Still for that read-out and setting: in the case of `O=C(NCc1ccc(C(F)(F)F)nc1)c1ccc(S(=O)(=O)Nc2nccs2)cc1` [Example 408, 4-[(1,3-Thiazol-2-ylamino)sulfonyl]-N-{[6-(trifluoromethyl)pyridin-3-yl]methyl}benzamide] it was 1.09 µM.
Same read-out and setting: in the case of `O=C(NCc1ccc(Oc2ccccc2)cc1)c1ccc(S(=O)(=O)Nc2nccs2)cc1` [Example 409, N-(4-phenoxybenzyl)-4-[(1,3-thiazol-2-ylamino)sulfonyl] benzamide] it was 0.04 µM.
Turning to `O=C(NCc1cccc(-c2ccccc2)c1)c1ccc(S(=O)(=O)Nc2nccs2)cc1` [Example 411, N-(biphenyl-3-ylmethyl)-4-[(1,3-thiazol-2-ylamino)sulfonyl] benzamide], the IC50 at hSCN3A sodium channels was 0.12 µM.
As to `COc1ccc(CNC(=O)c2ccc(S(=O)(=O)Nc3nccs3)cc2)cc1C(F)(F)F` [Example 412, N-[4-methoxy-3-(trifluoromethyl)benzyl]-4-[(1,3-thiazol-2-ylamino)sulfonyl] benzamide], the IC50 at hSCN3A sodium channels was 0.27 µM.
In the case of `O=C(NCc1ccc(Cl)cc1Cl)c1ccc(S(=O)(=O)Nc2nccs2)cc1` [Example 413, N-(24-dichlorobenzyl)-4-[(1,3-thiazol-2-ylamino)sulfonyl] benzamide], the IC50 on hSCN3A sodium channels was 0.18 µM.
Consider `Cc1cc(Cl)ccc1CNC(=O)c1ccc(S(=O)(=O)Nc2nccs2)cc1` [Example 414, N-(4-chloro-2-methylbenzyl)-4-[(1,3-thiazol-2-ylamino)sulfonyl] benzamide], for which the IC50 at hSCN3A sodium channels was 0.24 µM.
Still for that read-out and setting: in the case of `O=C(NCc1ccccc1-c1ccccc1)c1ccc(S(=O)(=O)Nc2nccs2)cc1` [Example 415, N-(biphenyl-2-ylmethyl)-4-[(1,3-thiazol-2-ylamino)sulfonyl] benzamide] it was 0.38 µM.
Regarding `N#Cc1ccc(CNC(=O)c2ccc(S(=O)(=O)Nc3nccs3)cc2)cc1` [Example 416, N-(4-cyanobenzyl)-4-[(1,3-thiazol-2-ylamino)sulfonyl] benzamide], the IC50 at hSCN3A sodium channels was 0.86 µM.
In the case of `O=C(NCc1ccc(C(F)(F)F)cc1)c1ccc(S(=O)(=O)Nc2nccs2)nc1` [Example 417, 6-[(1,3-Thiazol-2-ylamino)sulfonyl]-N-[4-(trifluoromethyl)benzyl]nicotinamide], the IC50 at hSCN3A sodium channels is 0.21 µM.

These data come from patent US8741934B2, “Inhibitors of ion channels” (Pfizer Limited, priority 2007, dated 2014).
